Assay results taken from US20210079039A1, “COMPOSITIONS AND METHODS FOR THE SELECTIVE DELIVERY OF THERAPEUTIC AND IMAGING AGENTS” (Avelas Biosciences, Inc., priority 2018, published 2021).
Numbered stars: 1 amine (or outer) side, 2 acyl side, 3 side chain; on linkers, the order of the positions; unused ones are H or OH. Square brackets hold non-standard residues; d marks the D form. Peptide text beside a SMILES is read from it. * marks the point of attachment. ξ: configuration not given here. Dolaproine(all-ξ) = COC(C(C)C(=O)[*:2])C1CCCN1[*:1]; Dolaproine = CO[C@@H]([C@@H]1CCCN1)[C@@H](C)C(=O)O; Hexanoyl(6-maleimido) = O=C1C=CC(=O)N1CCCCCC(=O)*; X1 = CC(C)[C@@H](C(=O)[*:2])N(C)C[C@@H](C)N[*:1]; Dil = CC[C@H](C)[C@H](NC)[C@@H](CC(=O)O)OC; X2 = CCC(C)C(C(CC(=O)[*:2])OC)N(C)[*:1]; X5 = CC(C)[C@@H](C(=O)*)N(C)C[C@@H](C)N; X4 = CC(C)[C@@H](C(=O)*)N(C)C[C@H](C)N; Cit = NC(=O)NCCC[CH](N)C(=O)O; NMeV = CN[CH](C(=O)O)C(C)C; ξCit = NC(=O)NCCCC(N)C(=O)O; X3 = CC(N*)C(O)c1ccccc1; Me2Gly = CN(C)CC(=O)*

Tested on: HT-1080 human fibrosarcoma tumor xenograft
Experiment: HT-1080 human fibrosarcoma tumor xenograft therapeutic model
Assay type: in vivo, athymic nude mice
Details: 0.6 to 3.0 mg/kg of cytotoxic agent component, IV on days 0 and 3, tumor volume at day 9
Method: Female athymic nude mice (8-10 weeks old) purchased from Charles River (Wilmington, 01887, MA) were used after 4-7 day of acclimatization period. Institutional Animal Care and Use Committee (IACUC) approved protocols #EB11-002-009-1 and CP-17-09. HT-1080 human fibrosarcoma tumor cells from ATCC (CCL-121™) were grown using standard cell culture techniques. Tumor cells (1×10^8 tumor cells/mL) were suspended in DPBS/Matrigel™ (1:1 vol) and implanted subcutaneously (50 μL tumor cell suspension/mouse) into the upper mammary fat pad or right flank of mice with individual identification number (ear tag). Four to seven days later when the average tumor volume was about 50-100 mm^3, mice were randomized into different experimental groups to have similar averaged (Mean±SEM) tumor volume and dosed with (i) vehicle and (ii) different doses of test compounds. Each group typically had 4 mice. For each involved tumor-bearing mouse, the tumor volume (mm^3) was measured using a caliper and calculated as follows: tumor volume=width^2×length/2. Test compounds were administered intravenously (tail vein) twice (two administrations 3 days apart) in conscious restrained tumor-bearing mice throughout the study. Individual tumor volume, body weight as well as clinical signs were recorded during the study. Each study was terminated on day 12 post-dosing initiation. Mice were euthanized by intracardiac ketamine-xylazine overdose after recording the last individual body weight and tumor volume. For each experimental group and study day, the tumor volumes from all mice were averaged and expressed as Mean±SD. In order to directly and objectively compare anti-tumor activity of candidate SDM's, tumor volume was assessed at the same Day 9 timepoint (6 days after the cessation of test compound administration) for each experimental cohort of test compound-treated group(s) and vehicle. Graphs show tumor volume in cubic millimeters versus time. […] Compound administration is indicated by downward arrow over data point on day 0 and 3.

SMILES	Efficacy (percent tumor growth inhibition versus vehicle)
CCC(C)C(C(CC(=O)N1CCCC1C(OC)C(C)C(=O)NC(C)C(O)c1ccccc1)OC)N(C)C(=O)C(NC(=O)C(C(C)C)N(C)C(=O)CNC(=O)C(CCCNC(N)=O)NC(=O)C(NC(=O)CCCCCN1C(=O)C=CC1=O)C(C)C)C(C)C (stereo not drawn) [SDM-320, maleimidocaproyl-valine-citrulline-GlyMMAE] ({Hexanoyl(6-maleimido)}-V[Cit]G[NMeV]V[X2][Dolaproine(all-ξ)]-X3; configuration not given here)	Low (Low: <29% inhibition)
CC[C@H](C)[C@@H]([C@@H](CC(=O)N1CCC[C@H]1[C@H](OC)[C@@H](C)C(=O)N[C@@H](Cc1ccccc1)C(=O)OC)OC)N(C)C(=O)[C@@H](NC(=O)[C@H](C(C)C)N(C)C[C@@H](C)NC(=O)C(CCCNC(N)=O)NC(=O)[C@@H](NC(=O)CCCCCN1C(=O)C=CC1=O)C(C)C)C(C)C (stereo partly drawn) [SDM-344] ({Hexanoyl(6-maleimido)}-V[ξCit][X1]V[Dil][Dolaproine]F-OMe)	Medium (Medium: ≥29% inhibition to <80% inhibition)
CC[C@H](C)[C@@H]([C@@H](CC(=O)N1CCC[C@H]1[C@H](OC)[C@@H](C)C(=O)N[C@@H](Cc1ccccc1)C(=O)NC)OC)N(C)C(=O)[C@@H](NC(=O)[C@H](C(C)C)N(C)C(=O)CNC(=O)[C@H](CCCNC(N)=O)NC(=O)[C@@H](NC(=O)CCCCCN1C(=O)C=CC1=O)C(C)C)C(C)C [SDM-380] ({Hexanoyl(6-maleimido)}-V[Cit]G[NMeV]V[Dil][Dolaproine]F-NHMe)	Low (Low: <29% inhibition)

Tested on: HT1080 Cells
Experiment: Active Cellular Cytotoxic (ACC) molecules efficacy in HT1080 cells in vitro assay
Assay type: cell-based
Details: Homo sapiens, HT-1080, 96 h, four days incubation, Prestoblue, average error of 38%
Method: Method: Plate cells one day prior to start of assay in 96 well black with clear bottom plates (Corning #3603), 2×10^4 cells per well in 100 μL of standard growth media (according to ATCC). Grow cells to 90% confluency.
Before start of assay rinse cells 1× with DPBS. Add compounds in a 3-fold serial dilution in triplicate (range e.g. 40 μM-18 nM), 100 μL per well in standard growth media.
Incubate four days then assay cell viability as described below. Remove media and rinse 1× with DPBS, then add 100 μL per well 10% Prestoblue Cell viability reagent (Thermo Fisher Scientific #A13261) in complete media. Return to incubator for two hours then read plate on SpectraMax M2e, bottom read excitation 555 emission 585 cut-off 570 which measures number of live cells. Cell viability was plotted versus compound concentration and data were fit to Log inhibitor vs response curve in GraphPad Prism and EC50 were determined.
Table 14 provides cellular activity data for exemplary ACCs (compound EC50 for reduction of viable cells).

SMILES	EC50
CC[C@H](C)[C@@H]([C@@H](CC(=O)N1CCC[C@H]1[C@H](OC)[C@@H](C)C(=O)N[C@@H](Cc1ccccc1)C(=O)O)OC)N(C)C(=O)[C@@H](NC(=O)[C@H](C(C)C)N(C)C(=O)CN(C)C)C(C)C [ACC-1] (Me2Gly-[NMeV]V[Dil][Dolaproine]F-OH)	2100 nM
CC[C@H](C)[C@@H]([C@@H](CC(=O)N1CCC[C@H]1[C@H](OC)[C@@H](C)C(=O)N[C@@H](Cc1ccccc1)C(=O)O)OC)N(C)C(=O)[C@@H](NC(=O)[C@H](C(C)C)N(C)C(=O)CNC)C(C)C [ACC-4] (HELM PEPTIDE1{[Sar].[meV].V.[CC[C@H](C)[C@@H]([C@@H](CC(=O)[*:2])OC)N(C)[*:1]].[CO[C@H]([C@@H](C)C(=O)[*:2])[C@@H]1CCCN1[*:1]].F}$$$$V2.0)	4400 nM
CC[C@H](C)[C@@H]([C@@H](CC(=O)N1CCC[C@H]1[C@H](OC)[C@@H](C)C(=O)N[C@@H](Cc1ccccc1)C(=O)O)OC)N(C)C(=O)[C@@H](NC(=O)[C@H](C(C)C)N(C)C(=O)CN)C(C)C [ACC-5] (HELM PEPTIDE1{G.[meV].V.[CC[C@H](C)[C@@H]([C@@H](CC(=O)[*:2])OC)N(C)[*:1]].[CO[C@H]([C@@H](C)C(=O)[*:2])[C@@H]1CCCN1[*:1]].F}$$$$V2.0)	710 nM
CC[C@H](C)[C@@H]([C@@H](CC(=O)N1CCC[C@H]1[C@H](OC)[C@@H](C)C(=O)N[C@@H](Cc1ccccc1)C(=O)O)OC)N(C)C(=O)[C@@H](NC(=O)[C@H](C(C)C)N(C)C[C@@H](C)NC(=O)CN)C(C)C [ACC-8] (H-G[X1]V[Dil][Dolaproine]F-OH)	910 nM
CC[C@H](C)[C@@H]([C@@H](CC(=O)N1CCC[C@H]1[C@H](OC)[C@@H](C)C(=O)N[C@@H](Cc1ccccc1)C(=O)O)OC)N(C)C(=O)[C@@H](NC(=O)[C@H](C(C)C)N(C)C[C@@H](C)N)C(C)C [ACC-10] (X5-V[Dil][Dolaproine]F-OH)	1020 nM
CC[C@H](C)[C@@H]([C@@H](CC(=O)N1CCC[C@H]1[C@H](OC)[C@@H](C)C(=O)N[C@@H](Cc1ccccc1)C(=O)O)OC)N(C)C(=O)[C@@H](NC(=O)[C@H](C(C)C)N(C)C[C@H](C)N)C(C)C [ACC-11] (X4-V[Dil][Dolaproine]F-OH)	1740 nM
